According to publication PMC5622107, “Small molecule inhibition of cGAS reduces interferon expression in primary macrophages from autoimmune mice” (Nature Communications, 2017):
Read-outs that look alike come from different tables or passages of the source.

Key:
[1] = target: T1, mouse cGAS (Mus musculus, UniProt Q8C6L5); test: RapidFire mass spectrometry (RF-MS) cGAS enzymatic assay, cGAMP product formation; assay type: biochemical; details: for inhibition at 12.5 µM: read-out: % inhibition at 12.5 µM
T1 construct: recombinant full-length mouse cGAS in reaction buffer; His6-SUMO (N, cleaved yes); made in house; host or cells: E. coli BL21(DE3) RIL
T1 sequence (Q8C6L5 whole entry): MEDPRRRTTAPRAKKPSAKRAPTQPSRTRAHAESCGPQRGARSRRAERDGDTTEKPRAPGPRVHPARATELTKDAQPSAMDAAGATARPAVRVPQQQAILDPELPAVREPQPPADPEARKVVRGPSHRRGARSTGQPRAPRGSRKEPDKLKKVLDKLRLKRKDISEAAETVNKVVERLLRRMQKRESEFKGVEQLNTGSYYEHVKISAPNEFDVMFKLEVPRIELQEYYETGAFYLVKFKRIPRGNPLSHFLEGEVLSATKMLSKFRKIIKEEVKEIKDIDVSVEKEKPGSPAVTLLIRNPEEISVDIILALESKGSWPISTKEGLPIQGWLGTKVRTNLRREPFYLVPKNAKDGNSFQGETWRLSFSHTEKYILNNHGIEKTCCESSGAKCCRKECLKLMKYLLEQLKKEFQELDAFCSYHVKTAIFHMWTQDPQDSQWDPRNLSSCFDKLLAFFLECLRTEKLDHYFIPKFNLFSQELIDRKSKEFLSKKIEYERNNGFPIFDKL
Description: The liquid was collected at the well bottom using centrifugation for 30 s at 180×g. […] Plates were centrifuged for 30 s at 180×g to collect all liquid at the bottom of the wells. […] The reaction was stopped by addition of 65 µl of 0.5% (v/v) formic acid per well. The plates were centrifuged for 30 s at 180×g and sealed with a Velocity11 PlateLoc thermal plate sealer.
The solvent used for loading/washing process was an aqueous solution of 5 mM ammonium acetate, pH 10. […] Each sample of approximately 35 µl were aspirated from a 384-well plate and separated using a Graphitic carbon Type D cartridge. After each sample was loaded onto the cartridge it was washed for 4 s at 1.5 ml min^−1 using the aqueous solvent. ATP, GTP and cGAMP were eluted for 5 s using the organic solvent at a flow rate of 1.5 ml min^−1. The cartridge was then re-equilibrated with the aqueous solvent for 5 s at a flow rate of 1.5 ml min^−1. All samples were analyzed using a negative ionization mode in the mass spectrometer, with a gas temperature of 350 °C, nebulizer pressure of 35 psig, gas flow rate of 15 l min^−1. […] The Agilent RapidFire Integrator software was used to calculate the area under the curve (AUC) of the extracted ion counts for each analyte. Data points represent values of product formation. Catalytic rates expressed as percent product formation were calculated using the AUC of cGAMP and using the AUC’s of ATP and GTP to normalize for variations in the capacity of the solid phase extraction column during a screening run, as shown in the following formula: product formation (%) = [(AUCcGAMP × 100)/(AUCcGAMP + ½ AUCATP + ½ AUCGTP)].
To determine the percent inhibition of mouse cGAS the data was normalized against the positive control (column 24) and negative control (column 23). […] The quality of the screen was assessed by Z′ factor[57] calculated as follows: Z′ = 1−[3∗(standard deviation positive control + standard deviation negative control)/(average positive control—average negative control)].

[2] = system: 45-bp dsDNA; test: DNA intercalation: acridine orange displacement from dsDNA by fluorescence polarization; assay type: binding; details: Supplementary Table 2; for % intercalation at 30 µM: acridine orange displacement compared to mitoxantrone; for Polarization: compound 30 µM
Description: Ten microliters of HEN buffer (10 mM HEPES pH 7.5, 1 mM EDTA pH 7.5, 100 mM NaCl) were dispensed per well using a Thermo Multidrop Combi dispenser (Thermo Scientific). The liquid was collected at the well bottom using centrifugation for 30 s at 180×g. […] The final concentration of compounds in the assay was 30 µM. […] The liquid was collected at the well bottom using centrifugation for 30 s at 180×g. […] The liquid was collected at the well bottom using centrifugation for 30 s at 180 × g and the plates were incubated for 30 min. Mitoxantrone, a known DNA intercalator was used at 50 µM as a positive control, while DMSO alone was used as negative control. FP was measured using a Biotek Synergy Neo plate reader. […] All FP values are expressed in millipolarization (mP) units. The mP values were calculated using the equation mP = 1000 × [(I S−I SB)−(I P−I PB)]/[I S—I SB) + (I P−I PB)], where I S and […] to the parallel and perpendicular emission intensity, respectively, and I SB and I SP corresponds to parallel emission intensity perpendicular emission intensity of the buffer, respectively. The experimental G-factor, defined as G = I S/I P, was set to 1.0 in all experiments.

[3] = Supplementary Table 2, batch of compounds stored in the screening library, read-out: IC50
[4] = Supplementary Table 2, compound 12.5 µM

SMILES	IC50 [1, 3] [µM]	inhibition at 12.5 µM [1, 4] [%]	% intercalation at 30 µM [2] [%]	Polarization [2] [mP]	% inhibition at 12.5 µM [1, 4] [%]	IC50 [1] [µM]	IC50 ([1]; Fig. 1e, four prioritized screening hits, confirmed with independent lots of compound, read-out: IC50) [µM]
CC[C@@]1(O)C[C@H](O[C@H]2C[C@H](N(C)C)[C@H](O)[C@H](C)O2)c2c(cc3c(c2O)C(=O)c2c(O)cccc2C3=O)[C@H]1C(=O)OC [RU891]	1.42	98	90.6	65	–	–	–
O=C(O)COc1cc(Cl)c(Cl)cc1Cl [RU1535]	0.55	98	3.4	244	–	–	–
CCOc1ccc2nc3cc(N)ccc3c(N)c2c1 [RU1667]	1.01	–	54.5	139	92	–	–
S=c1[nH]nc(-c2sc3ccccc3c2Cl)o1 [RU3433]	6.12	92	–	288	–	–	–
CCOC(=O)c1n[nH]c2c1C(=O)N(CC)C2=O [RU4893]	6.42	62	-1.4	254	–	–	–
O=c1[nH]n2c(=O)c3ccccc3nc2c2ccccc12 [RU5004]	6.49	90	-2.1	255	–	–	–
O=C(O)C1CSC(c2cc(Br)c(O)c(Br)c2)N1 (centres unmarked) [RU5512]	3	87	-6.3	264	–	–	–
Cc1nc2nc(C)c(Br)c(O)n2n1 [RU6753]	7.99	69	-0.5	252	–	–	–
COc1cccc2c1C(=O)c1c(O)c3c(c(O)c1C2=O)C[C@@](O)(C(=O)CO)C[C@@H]3O[C@H]1C[C@H](N)[C@H](O)[C@H](C)O1 [RU24114]	–	96	–	53	–	0.82	–
COc1cccc2c1C(=O)c1c(O)c3c(c(O)c1C2=O)C[C@@](O)(C(C)=O)C[C@@H]3OC1CC(N)C(O)C(C)O1 (some centres unmarked) [RU24146]	0.69	93	–	55	–	–	–
COc1cccc2c1C(=O)c1c(O)c3c(c(O)c1C2=O)C[C@@](O)(C(C)=O)C[C@@H]3O[C@H]1C[C@H](N)[C@H](O)[C@H](C)O1 [RU83653]	1.81	91	98.0	50	–	–	–
CC(=O)[C@]1(O)Cc2c(O)c3c(c(O)c2[C@@H](O[C@H]2C[C@H](N)[C@H](O)[C@H](C)O2)C1)C(=O)c1ccccc1C3=O [RU84314]	1.45	90	87.2	72	–	–	–
N#CCC(=O)Nc1sc2c(c1C(N)=O)CCCC2 [RU93687]	9.11	91	-5.8	263	–	–	–
CC(C)OC(=O)C(C#N)=Cc1ccc([N+](=O)[O-])o1 [RU94102]	8.14	64	-8.1	267	–	–	–
N#CC1=C(N)SC(N)=C(C#N)C1c1ccc([N+](=O)[O-])cc1 [RU107796]	8.66	62	-7.6	266	–	–	–
O=C(CCl)Nc1nc(-c2c[nH]c3ccccc23)cs1 [RU114757]	5.38	72	-10.1	271	–	–	1.4
O=C1NC(=S)SC1=Cc1ccccc1F [RU116287]	6.51	63	-9.8	271	–	–	–

SMILES	IC50 [1, 3] [µM]	inhibition at 12.5 µM [1, 4] [%]	% intercalation at 30 µM [2] [%]	Polarization [2] [mP]	% inhibition at 12.5 µM [1, 4] [%]	IC50 [1] [µM]	IC50 ([1]; Fig. 1e, four prioritized screening hits, confirmed with independent lots of compound, read-out: IC50) [µM]
COc1cccc2c1C(=O)c1c(O)c3c(c(O)c1C2=O)C[C@@](O)(C(=O)CO)C[C@@H]3O[C@H]1C[C@H](N)[C@@H](O)[C@H](C)O1 [RU162145]	–	98	96.5	53	–	0.58	–
CCC1=NN2C(=N)/C(=C/c3ccc(O)cc3)C(=O)N=C2S1 [RU169196]	4.25	89	-7.5	266	–	–	–
CCC1=NN2C(=N)/C(=C/c3cccs3)C(=O)N=C2S1 [RU169248]	3.34	97	-5.7	262	–	–	–
Cc1ccc(C(=O)c2nc3c(n2O)CCCCC3)cc1 [RU171395]	0.25	90	-0.3	251	–	–	–
Cc1nnc(NC(=O)c2ccc(S(=O)(=O)Nc3cccc(C(F)(F)F)c3)o2)s1 [RU174368]	7.47	76	5.6	239	–	–	–
NC(=O)N1C(=O)/C(=C(\O)c2cccs2)c2cc(Cl)ccc21 [RU187170]	6.09	70	–	276	–	–	–
N#Cc1cc(I)c(O)c([N+](=O)[O-])c1 [RU187299]	0.58	95	-2.8	256	–	–	–
O=C(Nc1ncc([N+](=O)[O-])s1)c1cccs1 [RU187339]	6.62	86	–	274	–	–	–
N=C(N)NN=C1C=CC(=NNC(N)=S)C=C1 [RU187428]	–	79	–	164	–	9.93	–
O=C(Nc1nncs1)c1cn(-c2ccccc2Br)nn1 [RU191669]	9.09	71	-1.0	253	–	–	–
N#Cc1ccc(/C=C2\CS(=O)(=O)c3c(F)cccc3C2=O)cc1 [RU198755]	6.33	63	-6.2	263	–	–	–
O=C1CN2C(=C1c1ccccc1)NC(=O)c1sc3ccccc3c12 [RU207450]	9.69	70	–	274	–	–	–
CS(=O)(=O)c1ncc2c(n1)c(=O)c(C#N)c1[nH]c3ccccc3c(=O)n12 [RU207488]	4.68	67	–	272	–	–	–
COC(=O)C1=NN2C(=NS(=O)(=O)c3ccccc32)N1 [RU209189]	4.44	91	0.0	251	–	–	–
OCc1cn(-c2ccccc2Cl)nn1 [RU219771]	1.27	94	-1.3	253	–	–	–
O=c1cc(CCn2cccn2)nc(-c2ccc(CN3CCC[C@@H]3CO)cc2)[nH]1 [RU234543]	6.76	89	-9.3	270	–	–	–
